Positions of bridges follow the written chain, without caps; N, C: chain ends. Non-standard residues stand in square brackets, D forms with d. Residues, ends and D or L forms follow the SMILES beside them. *: point of attachment. NH(1-deoxy-D-glucityl) = OC[C@@H](O)[C@@H](O)[C@H](O)[C@@H](O)CN*; Trp(1-CH2COOH) = N[C@@H](Cc1cn(CC(=O)O)c2ccccc12)C(=O)O; Phe(3-COOH) = N[C@@H](Cc1cccc(C(=O)O)c1)C(=O)O; NMePhe(3-Cl) = CN[C@@H](Cc1cccc(Cl)c1)C(=O)O; 3Pal(6-NH2) = Nc1ccc(C[C@H](N)C(=O)O)cn1; NMeY = CN[C@@H](Cc1ccc(O)cc1)C(=O)O; 3Pal = N[C@@H](Cc1cccnc1)C(=O)O; 4Pal = N[C@@H](Cc1ccncc1)C(=O)O; PEG4 = NCCOCCOCCOCCOCCC(=O)O; Carboxymethyl = O=C(O)C*; NHCH2CH2OMe = COCCN*
These compounds were tested against T1, human transferrin receptor (hTfR) (Homo sapiens, UniProt P02786) (assay: Evaluation of molecular interaction between transferrin receptor (hTfR) and peptide using surface plasmon resonance (SPR)). Conditions: KD class for binding to hTfR by SPR; peptide with the linker shown in the same line; 'low signal indicates no activity'; read-out: SPR.
T1 construct: made in house
T1 sequence (P02786 89-760 limits assumed): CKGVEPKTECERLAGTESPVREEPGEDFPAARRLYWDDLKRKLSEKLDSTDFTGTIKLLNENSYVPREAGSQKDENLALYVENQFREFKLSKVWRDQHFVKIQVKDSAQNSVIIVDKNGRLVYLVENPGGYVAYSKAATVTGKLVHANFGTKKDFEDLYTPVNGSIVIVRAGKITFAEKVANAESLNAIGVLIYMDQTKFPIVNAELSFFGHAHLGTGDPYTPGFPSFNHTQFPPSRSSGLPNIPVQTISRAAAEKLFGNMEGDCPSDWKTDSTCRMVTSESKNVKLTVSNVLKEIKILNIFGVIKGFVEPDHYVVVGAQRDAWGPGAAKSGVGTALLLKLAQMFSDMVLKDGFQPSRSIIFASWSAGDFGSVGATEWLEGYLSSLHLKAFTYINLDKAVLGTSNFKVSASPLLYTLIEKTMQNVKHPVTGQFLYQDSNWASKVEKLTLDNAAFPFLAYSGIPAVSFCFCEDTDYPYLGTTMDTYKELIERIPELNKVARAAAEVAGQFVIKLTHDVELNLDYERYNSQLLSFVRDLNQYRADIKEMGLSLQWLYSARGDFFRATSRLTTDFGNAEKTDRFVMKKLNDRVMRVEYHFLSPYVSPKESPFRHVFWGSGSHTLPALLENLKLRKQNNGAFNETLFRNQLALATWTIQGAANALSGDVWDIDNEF
Assay type: binding
Procedure: Evaluation Test of Molecular Interaction Between Transferrin Receptor (hTfR) and Peptide Using Surface Plasmon Resonance (SPR)
The intermolecular interactions of various synthesized peptides with the transferrin receptor (hTfR) by surface plasmon resonance (SPR) of the peptides were tested by the methods described below. Specific test methods are shown below.
NTA sensor chip (Global Life Sciences Technologies Japan K.K.) was inserted into BiacoreT200 (Global Life Sciences Technologies Japan K.K.), then the priming operation was performed three times by using running buffer containing: 10 mM HEPES pH 8.0 (Nacalai Tesque, Inc.), 150 mM NaCl (Nacalai Tesque, Inc.), 0.05% Tween 20 (Nacalai Tesque, Inc.), 0.1% BSA (SIGMA-ALDRICH) and 1.0% DMSO (FUJIFILM Wako Pure Chemical Corporation), and equilibrated at a flow rate of 30 μL/min. 350 mM EDTA solution was reacted at a flow rate of 10 μL/min for 60 seconds, 0.5 mM […] solution (Kishida Chemical Co., Ltd.) was reacted at a flow rate of 10 μL/min for 60 seconds, and then the NTA sensor chip was washed with 3 mM EDTA solution (Nacalai Tesque, Inc.) at a flow rate of 10 μL/min for 60 seconds. After mixing 50 μL each of 60 mM EDC solution (Global Life Science Technologies Japan K.K.) and 650 mM NHS solution (Global Life Science Technologies Japan K.K.), the reaction was carried out at a flow rate of 10 μL/min for 420 seconds. 150 μL of 0.5 μM hTfR dimer solution was prepared by dilution with running buffer and reacted at a flow rate of 10 μL/min for 300 seconds to immobilize hTfR on the NTA sensor chip. For the human transferrin receptor (hTfR), recombinant hTfR described in Example 2 of WO2018/124121 was used. After immobilization, capping was performed by reacting with 1.0 M ethanolamine solution (Global Life Sciences Technologies Japan K.K.) at a flow rate of 10 μL/min for 420 seconds. Peptide lysate prepared in DMSO solution to 10 mM was diluted with running buffer to be a final concentration of 10 μM peptide lysate, then peptide solutions of 100 nM, 50 nM, 25 nM, 10 nM, and 5 nM were prepared. Using the above samples, the kinetics of the peptide against hTfR was obtained by SPR measurement.
The kinetic evaluation model was single-cycle kinetics, and curve fitting was performed using Biacore T200 Evaluation Software Version 3.0 (Global Life Science Technologies Japan K.K.). The binding of the peptide to hTfR was evaluated by performing curve fitting on the obtained sensorgram by least squares method and obtaining the KD value.

Kd, 1 to 100 nM:
CC[C@H](C)[C@@H]1NC(=O)[C@H](Cc2cccnc2)NC(=O)[C@H](Cc2ccc(O)cc2)NC(=O)[C@H](CC(N)=O)NC(=O)[C@H](Cc2c[nH]c3ccccc23)NC(=O)[C@H](C(C)C)NC(=O)[C@H](Cc2cccc(Cl)c2)N(C)C(=O)[C@H](C(C)C)NC(=O)[C@H](C)NC(=O)CSC[C@@H](C(=O)NCCOCCOCCOCCOCCC(N)=O)NC(=O)[C@H](Cc2ccc(O)cc2)N(C)C(=O)[C@H](Cc2ccncc2)NC(=O)[C@H](CCC(=O)NCCOC)NC(=O)[C@H](CCC(=O)NCCOC)NC(=O)[C@H]([C@@H](C)CC)NC1=O [894_0326] ({CH2CO}-AV[NMePhe(3-Cl)]VWNY[3Pal]IIE(NHCH2CH2OMe)E(NHCH2CH2OMe)[4Pal][NMeY]C[PEG4]-NH2; thioether N-15), CC[C@H](C)[C@@H]1NC(=O)[C@H](Cc2cccnc2)NC(=O)[C@H](Cc2ccc(O)cc2)NC(=O)[C@H](CC(N)=O)NC(=O)[C@H](Cc2c[nH]c3ccccc23)NC(=O)[C@H](C(C)C)NC(=O)[C@H](Cc2cccc(Cl)c2)N(C)C(=O)[C@H](C(C)C)NC(=O)[C@H](C)NC(=O)CSC[C@@H](C(=O)NCCOCCOCCOCCOCCC(N)=O)NC(=O)[C@H](Cc2ccc(O)cc2)N(C)C(=O)[C@H](Cc2ccncc2)NC(=O)[C@H](CCC(=O)NC[C@H](O)[C@@H](O)[C@H](O)[C@H](O)CO)NC(=O)[C@H](CCC(=O)NC[C@H](O)[C@@H](O)[C@H](O)[C@H](O)CO)NC(=O)[C@H]([C@@H](C)CC)NC1=O [894_0328] ({CH2CO}-AV[NMePhe(3-Cl)]VWNY[3Pal]IIE(NH(1-deoxy-D-glucityl))E(NH(1-deoxy-D-glucityl))[4Pal][NMeY]C[PEG4]-NH2; thioether N-15), CC[C@H](C)[C@@H]1NC(=O)[C@H](Cc2ccc(OCC(=O)O)cc2)NC(=O)[C@H](Cc2ccc(O)cc2)NC(=O)[C@H](CC(N)=O)NC(=O)[C@H](Cc2cn(CC(=O)O)c3ccccc23)NC(=O)[C@H](C(C)C)NC(=O)[C@H](Cc2cccc(Cl)c2)N(C)C(=O)[C@H](C(C)C)NC(=O)[C@H](C)NC(=O)CSC[C@@H](C(=O)NCCOCCOCCOCCOCCC(N)=O)NC(=O)[C@H](Cc2ccc(O)cc2)N(C)C(=O)[C@H](Cc2cccc(C(=O)O)c2)NC(=O)[C@H](CCC(=O)NCCOC)NC(=O)[C@H](CCC(=O)NCCOC)NC(=O)[C@H]([C@@H](C)CC)NC1=O [894_0329] ({CH2CO}-AV[NMePhe(3-Cl)]V[Trp(1-CH2COOH)]NYY(Carboxymethyl)IIE(NHCH2CH2OMe)E(NHCH2CH2OMe)[Phe(3-COOH)][NMeY]C[PEG4]-NH2; thioether N-15), CC[C@H](C)[C@@H]1NC(=O)[C@H](Cc2ccc(OC)cc2)NC(=O)[C@H](Cc2ccc(O)cc2)NC(=O)[C@H](CC(N)=O)NC(=O)[C@H](Cc2c[nH]c3ccccc23)NC(=O)[C@H](C(C)C)NC(=O)[C@H](Cc2cccc(Cl)c2)N(C)C(=O)[C@H](C(C)C)NC(=O)[C@H](C)NC(=O)CSC[C@@H](C(=O)NCCOCCOCCOCCOCCC(N)=O)NC(=O)[C@H](Cc2ccc(O)cc2)N(C)C(=O)[C@H](Cc2ccccc2)NC(=O)[C@H](CCC(=O)NCCOC)NC(=O)[C@H](CCC(=O)NCCOC)NC(=O)[C@H]([C@@H](C)CC)NC1=O [894_0330] ({CH2CO}-AV[NMePhe(3-Cl)]VWNYY(Me)IIE(NHCH2CH2OMe)E(NHCH2CH2OMe)F[NMeY]C[PEG4]-NH2; thioether N-15), CC[C@H](C)[C@@H]1NC(=O)[C@H](Cc2ccc(OC)cc2)NC(=O)[C@H](Cc2ccc(O)cc2)NC(=O)[C@H](CC(N)=O)NC(=O)[C@H](Cc2c[nH]c3ccccc23)NC(=O)[C@H](C(C)C)NC(=O)[C@H](Cc2cccc(Cl)c2)N(C)C(=O)[C@H](C(C)C)NC(=O)[C@H](C)NC(=O)CSC[C@@H](C(=O)NCCOCCOCCOCCOCCC(N)=O)NC(=O)[C@H](Cc2ccc(O)cc2)N(C)C(=O)[C@H](Cc2ccccc2)NC(=O)[C@H](CCC(N)=O)NC(=O)[C@H](CCC(N)=O)NC(=O)[C@H]([C@@H](C)CC)NC1=O [894_0331] ({CH2CO}-AV[NMePhe(3-Cl)]VWNYY(Me)IIQQF[NMeY]C[PEG4]-NH2; thioether N-15), CC[C@H](C)[C@@H]1NC(=O)[C@H](Cc2ccc(OC)cc2)NC(=O)[C@H](Cc2ccc(N)nc2)NC(=O)[C@H](CC(N)=O)NC(=O)[C@H](Cc2cn(CC(=O)O)c3ccccc23)NC(=O)[C@H](C(C)C)NC(=O)[C@H](Cc2cccc(Cl)c2)N(C)C(=O)[C@H](C(C)C)NC(=O)[C@H](C)NC(=O)CSC[C@@H](C(=O)NCCOCCOCCOCCOCCC(N)=O)NC(=O)[C@H](Cc2ccc(O)cc2)N(C)C(=O)[C@H](Cc2ccccc2)NC(=O)[C@H](CCCNC(=N)N)NC(=O)[C@H](CCCNC(=N)N)NC(=O)[C@H]([C@@H](C)CC)NC1=O [894_0332] ({CH2CO}-AV[NMePhe(3-Cl)]V[Trp(1-CH2COOH)]N[3Pal(6-NH2)]Y(Me)IIRRF[NMeY]C[PEG4]-NH2; thioether N-15), CC[C@H](C)[C@@H]1NC(=O)[C@H](Cc2cccnc2)NC(=O)[C@H](Cc2ccc(O)cc2)NC(=O)[C@H](CC(N)=O)NC(=O)[C@H](Cc2cn(CC(=O)O)c3ccccc23)NC(=O)[C@H](C(C)C)NC(=O)[C@H](Cc2cccc(Cl)c2)N(C)C(=O)[C@H](C(C)C)NC(=O)[C@H](C)NC(=O)CSC[C@@H](C(=O)NCCOCCOCCOCCOCCC(N)=O)NC(=O)[C@H](Cc2ccc(O)cc2)N(C)C(=O)[C@H](Cc2ccccc2)NC(=O)[C@H](CCCNC(=N)N)NC(=O)[C@H](CCCNC(=N)N)NC(=O)[C@H]([C@@H](C)CC)NC1=O [894_0333] ({CH2CO}-AV[NMePhe(3-Cl)]V[Trp(1-CH2COOH)]NY[3Pal]IIRRF[NMeY]C[PEG4]-NH2; thioether N-15), CC[C@H](C)[C@@H]1NC(=O)[C@H](Cc2ccc(OC)cc2)NC(=O)[C@H](Cc2ccc(O)cc2)NC(=O)[C@H](CC(N)=O)NC(=O)[C@H](Cc2cn(CC(=O)O)c3ccccc23)NC(=O)[C@H](C(C)C)NC(=O)[C@H](Cc2cccc(Cl)c2)N(C)C(=O)[C@H](C(C)C)NC(=O)[C@H](C)NC(=O)CSC[C@@H](C(=O)NCCOCCOCCOCCOCCC(N)=O)NC(=O)[C@H](Cc2ccc(O)cc2)N(C)C(=O)[C@H](Cc2ccncc2)NC(=O)[C@H](CCCNC(=N)N)NC(=O)[C@H](CCCNC(=N)N)NC(=O)[C@H]([C@@H](C)CC)NC1=O [894_0335], CC[C@H](C)[C@@H]1NC(=O)[C@H](Cc2ccc(OC)cc2)NC(=O)[C@H](Cc2ccc(O)cc2)NC(=O)[C@H](CC(N)=O)NC(=O)[C@H](Cc2cn(CC(=O)O)c3ccccc23)NC(=O)[C@H](C(C)C)NC(=O)[C@H](Cc2cccc(Cl)c2)N(C)C(=O)[C@H](C(C)C)NC(=O)[C@H](C)NC(=O)CSC[C@@H](C(=O)NCCOCCOCCOCCOCCC(N)=O)NC(=O)[C@H](Cc2ccc(O)cc2)N(C)C(=O)[C@H](Cc2cccc(C(=O)O)c2)NC(=O)[C@H](CCCNC(=N)N)NC(=O)[C@H](CCCNC(=N)N)NC(=O)[C@H]([C@@H](C)CC)NC1=O [894_0336], CC[C@H](C)[C@@H]1NC(=O)[C@H](Cc2cccnc2)NC(=O)[C@H](Cc2ccc(N)nc2)NC(=O)[C@H](CC(N)=O)NC(=O)[C@H](Cc2cn(CC(=O)O)c3ccccc23)NC(=O)[C@H](C(C)C)NC(=O)[C@H](Cc2cccc(Cl)c2)N(C)C(=O)[C@H](C(C)C)NC(=O)[C@H](C)NC(=O)CSC[C@@H](C(=O)NCCOCCOCCOCCOCCC(N)=O)NC(=O)[C@H](Cc2ccc(O)cc2)N(C)C(=O)[C@H](Cc2ccccc2)NC(=O)[C@H](CCCNC(=N)N)NC(=O)[C@H](CCCNC(=N)N)NC(=O)[C@H]([C@@H](C)CC)NC1=O [894_0338] ({CH2CO}-AV[NMePhe(3-Cl)]V[Trp(1-CH2COOH)]N[3Pal(6-NH2)][3Pal]IIRRF[NMeY]C[PEG4]-NH2; thioether N-15), CC[C@H](C)[C@@H]1NC(=O)[C@H](Cc2cccnc2)NC(=O)[C@H](Cc2ccc(N)nc2)NC(=O)[C@H](CC(N)=O)NC(=O)[C@H](Cc2c[nH]c3ccccc23)NC(=O)[C@H](C(C)C)NC(=O)[C@H](Cc2cccc(Cl)c2)N(C)C(=O)[C@H](C(C)C)NC(=O)[C@H](C)NC(=O)CSC[C@@H](C(=O)NCCOCCOCCOCCOCCC(N)=O)NC(=O)[C@H](Cc2ccc(O)cc2)N(C)C(=O)[C@H](Cc2ccccc2)NC(=O)[C@H](CCCNC(=N)N)NC(=O)[C@H](CCCNC(=N)N)NC(=O)[C@H]([C@@H](C)CC)NC1=O [894_0357] ({CH2CO}-AV[NMePhe(3-Cl)]VWN[3Pal(6-NH2)][3Pal]IIRRF[NMeY]C[PEG4]-NH2; thioether N-15)

From patent US20260116920A1, “HUMAN TRANSFERRIN RECEPTOR BINDING PEPTIDE” (PEPTIDREAM INC., priority 2021, published 2026)
